Experimental findings from patent US20190119348A1, “PARATHYROID HORMONE RECEPTOR 1 ANTAGONIST AND INVERSE AGONIST POLYPEPTIDES AND METHODS OF THEIR USE” (The General Hospital Corporation, priority 2016, published 2019) are described below.

In assay [1] the target is T1, PTHR1 (Homo sapiens, UniProt Q03431).
T1 construct: expressed in transfected cells; host or cells: GP-2.3 (HEK-293 stably transfected with hPTHR1 and GloSensor)
T1 sequence (Q03431 27-593): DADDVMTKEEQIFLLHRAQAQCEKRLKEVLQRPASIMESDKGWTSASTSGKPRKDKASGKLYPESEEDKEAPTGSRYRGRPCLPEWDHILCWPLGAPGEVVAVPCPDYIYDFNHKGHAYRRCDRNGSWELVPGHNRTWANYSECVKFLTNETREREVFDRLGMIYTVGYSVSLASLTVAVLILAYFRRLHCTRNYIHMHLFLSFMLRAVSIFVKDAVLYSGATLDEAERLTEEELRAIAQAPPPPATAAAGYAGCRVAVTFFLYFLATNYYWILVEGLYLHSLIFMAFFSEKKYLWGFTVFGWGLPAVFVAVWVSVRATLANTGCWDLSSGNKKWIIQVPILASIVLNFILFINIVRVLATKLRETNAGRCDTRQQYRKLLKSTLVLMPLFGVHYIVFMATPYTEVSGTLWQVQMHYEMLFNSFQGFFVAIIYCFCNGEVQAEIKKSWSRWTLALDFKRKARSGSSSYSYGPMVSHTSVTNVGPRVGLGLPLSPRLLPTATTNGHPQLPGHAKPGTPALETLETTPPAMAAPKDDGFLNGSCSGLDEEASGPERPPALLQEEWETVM
Kind of assay: Antagonism of PTH(1-34)-induced cAMP response (GloSensor) in GP-2.3 cells. The class given is cell-based. As for the experimental part:
cAMP signaling was assessed in the HEK293-derived or SaOS2-derived cell lines stably expressing the luciferase-based GloSensor™ cAMP reporter (Hattersley et al., Paper presented at: Novel Signaling Mechanisms and Bone Cell Biology 2014; Binkowski et al., Methods in molecular biology. 756:263-271). HEK-293 cells were further transfected to stably express the hPTHR1, hPTHR1-H223R, or hPTHR1-T410P. The cells were seeded into 96-well white plates and were assayed 24 to 48 hours post-confluency. Assays were performed at room temperature in CO2-independent culture media (Life Technologies, Corp., Carlsbad, Calif.) containing 0.1% BSA (CIDB). The cells were pre-loaded with luciferin (0.5 mM in CIDB) for 15 minutes, then PTH peptides were added at varying concentrations. cAMP-dependent luminescence was measured at two-minute intervals using a PerkinElmer Envision plate reader. The time at which maximum luminescence (cps) observed with agonist alone, typically at 10-20 minutes after agonist addition, was used to obtain data from wells containing antagonist with or without agonist, to thus generate antagonist ligand dose-response curves. The resulting cps values were then plotted against ligand concentration using GraphPad Prism 7.0 software and a four-parameter logistics curve fitting equation, which yielded parameters of inhibitory potency (pIC50).
Pharmacological properties of the ligands were assessed in cells expressing the PTHR1 and the GloSensor™ cAMP reporter. The assays used GP-2.3 cells, derived from HEK293 cells by stable transfection with the hPTHR1 and GloSensor™, as well as SGS-72 cells, which are derived from the human osteosarcoma cell line, Saos-2, in which is endogenously expressed the hPTHR1, by stable transfection with GloSensor™. Binding of representative polypeptides to the PTHR1 was assessed in GP-2.3 cells by radioligand competition methods (FIGS. 1A and 1B, Table 3).
[…] concentration of antagonist that inhibited the maximum response to PTH(1-34)-induced in the absence of antagonist (at ˜40 minutes) is reported in units of -log M (pIC50), and the corresponding nanomolar value is shown below each pIC50 value. Data are means of the number of experiments indicated (n). The PTH(1-34)-induced maximum luminescence was ˜80,000 cps and the basal was ˜1,000 cps. TMR indicates Lys13 modified at epsilon amino function with TMR, P vs. inhibition by dW12,Y34-bPTH(7-34).

Assay [2] concerns the target T2, endogenous hPTHR1 (Homo sapiens, UniProt Q03431).
T2 construct: Saos-2, in which is endogenously expressed the hPTHR1; endogenous in cells
T2 sequence (Q03431 27-593): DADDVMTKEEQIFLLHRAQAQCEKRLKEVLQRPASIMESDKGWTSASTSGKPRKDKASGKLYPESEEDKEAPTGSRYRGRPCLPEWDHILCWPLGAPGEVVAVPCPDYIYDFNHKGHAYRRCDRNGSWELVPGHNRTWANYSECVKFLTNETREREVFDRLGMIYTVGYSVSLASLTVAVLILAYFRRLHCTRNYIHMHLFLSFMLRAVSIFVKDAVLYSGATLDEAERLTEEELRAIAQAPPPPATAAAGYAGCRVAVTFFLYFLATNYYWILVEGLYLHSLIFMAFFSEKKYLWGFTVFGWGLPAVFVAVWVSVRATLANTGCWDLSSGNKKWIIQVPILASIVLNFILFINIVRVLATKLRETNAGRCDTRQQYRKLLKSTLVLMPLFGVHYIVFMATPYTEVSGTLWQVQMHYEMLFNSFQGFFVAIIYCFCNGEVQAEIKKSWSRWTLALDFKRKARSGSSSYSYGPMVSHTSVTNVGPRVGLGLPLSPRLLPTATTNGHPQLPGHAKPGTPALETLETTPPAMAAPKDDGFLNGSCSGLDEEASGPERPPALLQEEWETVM
Kind of assay: Antagonism of PTH(1-34)- and PTHrP(1-36)-induced cAMP response (GloSensor) in SGS-72 cells. As to conditions: PTH(1-34) 0.3 nM. The class given is cell-based. The protocol:
cAMP signaling was assessed in the HEK293-derived or SaOS2-derived cell lines stably expressing the luciferase-based GloSensorTM cAMP reporter ([…] al., Paper presented at: Novel Signaling Mechanisms and Bone Cell Biology 2014; Binkowski et al., Methods in molecular biology. 756:263-271). HEK-293 cells were further transfected to stably express the hPTHR1, hPTHR1-H223R, or hPTHR1-T410P. The cells were seeded into 96-well white plates and were assayed 24 to 48 hours post-confluency. Assays were performed at room temperature in CO2-independent culture media (Life Technologies, Corp., Carlsbad, Calif.) containing 0.1% BSA (CIDB). The cells were pre-loaded with luciferin (0.5 mM in CIDB) for 15 minutes, then PTH peptides were added at varying concentrations. cAMP-dependent luminescence was measured at two-minute intervals using a PerkinElmer Envision plate reader. The time at which maximum luminescence (cps) observed with agonist alone, typically at 10-20 minutes after agonist addition, was used to obtain data from wells containing antagonist with or without agonist, to thus generate antagonist ligand dose-response curves. The resulting cps values were then plotted against ligand concentration using GraphPad Prism 7.0 software and a four-parameter logistics curve fitting equation, which yielded parameters of inhibitory potency (pIC50). Pharmacological properties of the ligands were assessed in cells expressing the PTHR1 and the GloSensorTM cAMP reporter. The assays used GP-2.3 cells, derived from HEK293 cells by stable transfection with the hPTHR1 and GloSensorTM, as well as SGS-72 cells, which are derived from the human osteosarcoma cell line, Saos-2, in which is endogenously expressed the hPTHR1, by stable transfection with GloSensorTM. Binding of representative polypeptides to the PTHR1 was assessed in GP-2.3 cells by radioligand competition methods (FIGS. 1A and 1B, Table 3). […] In Table 5, antagonist assays were performed in SGS-72 cells (SaOS2 cells with stable GloSensorTM cAMP reporter) at room temperature. […] The mean (±sem) concentration of antagonist that inhibited the maximum agonist-induced response observed in the absence of antagonist (at 40 minutes) is reported in units of -log M (pIC50), and the corresponding nanomolar value is shown below each pIC50 value. Data are means of the number of seven experiments. The PTH(1-34)-induced maximum luminescence was 500,000 cps and the basal was 5,000 cps. TMR indicates Lys13 modified at epsilon amino function with TMR. The data are illustrated in FIG. 7A. […] Date are means (±SEM) of the number of separate experiments indicated by n.

Where a SMILES comes first, the peptide text is derived from it. [ ]: non-standard residue; d: D form. Nle = CCCC[C@H](N)C(=O)O

As to `CC[C@H](C)[C@H](NC(=O)[C@H](CCC(=O)O)NC(=O)[C@H](CO)NC(=O)[C@@H](NC(=O)[C@@H](N)CO)C(C)C)C(=O)N[C@@H](CCC(N)=O)C(=O)N[C@@H](CC(C)C)C(=O)N[C@@H](CCSC)C(=O)N[C@@H](Cc1c[nH]cn1)C(=O)N[C@@H](CC(N)=O)C(=O)N[C@@H](CC(C)C)C(=O)NCC(=O)N[C@@H](CCCCN)C(=O)N[C@@H](Cc1c[nH]cn1)C(=O)N[C@@H](CC(C)C)C(=O)N[C@@H](CC(N)=O)C(=O)N[C@@H](CO)C(=O)N[C@@H](CCSC)C(=O)N[C@@H](CCC(=O)O)C(=O)N[C@@H](CCCNC(=N)N)C(=O)N[C@H](C(=O)N[C@@H](CCC(=O)O)C(=O)N[C@@H](Cc1c[nH]c2ccccc12)C(=O)N[C@@H](CC(C)C)C(=O)N[C@@H](CCCNC(=N)N)C(=O)N[C@@H](CCCCN)C(=O)N[C@@H](CCCCN)C(=O)N[C@@H](CC(C)C)C(=O)N[C@@H](CCC(N)=O)C(=O)N[C@@H](CC(=O)O)C(=O)N[C@H](C(=O)N[C@@H](Cc1c[nH]cn1)C(=O)N[C@@H](CC(N)=O)C(=O)N[C@@H](Cc1ccccc1)C(N)=O)C(C)C)C(C)C` [compound 1923, PTH(1-34), reference compound], the “PTH(1-34)-induced maximum luminescence” value is ~80,000 cps in assay [1] (basal ~1,000 cps) and ~500,000 cps in assay [2] (basal ~5,000 cps).
On to `CCCC[C@H](NC(=O)[C@H](CC(C)C)NC(=O)[C@H](CCC(N)=O)NC(=O)[C@@H](N)[C@@H](C)CC)C(=O)N[C@@H](Cc1c[nH]cn1)C(=O)N[C@@H](CCC(N)=O)C(=O)N[C@@H](CCCNC(=N)N)C(=O)N[C@H](Cc1c[nH]c2ccccc12)C(=O)N[C@@H](CCCCN)C(=O)N[C@@H](Cc1c[nH]c2ccccc12)C(=O)N[C@H](C(=O)N[C@@H](CCC(N)=O)C(=O)N[C@@H](CC(=O)O)C(=O)N[C@@H](C)C(=O)N[C@@H](CCCNC(=N)N)C(=O)N[C@@H](CCCNC(=N)N)C(=O)N[C@@H](CCCNC(=N)N)C(=O)N[C@@H](C)C(=O)N[C@@H](Cc1c[nH]c2ccccc12)C(=O)N[C@@H](CC(C)C)C(=O)N[C@@H](Cc1c[nH]cn1)C(=O)N[C@@H](CCCCN)C(=O)N[C@@H](CC(C)C)C(=O)N[C@H](C(=O)N[C@@H](C)C(=O)N[C@@H](CCC(=O)O)C(=O)N[C@H](C(=O)N[C@@H](Cc1c[nH]cn1)C(=O)N[C@H](C(=O)N[C@@H](C)C(=O)N[C@@H](CCC(=O)O)C(=O)N[C@H](C(=O)N[C@@H](CS)C(N)=O)[C@@H](C)CC)[C@@H](C)O)[C@@H](C)CC)[C@@H](C)CC)[C@@H](C)CC` [compound 1974, Nle8, dW12, W23, C37-LA-PTH(5-37)] (H-IQL[Nle]HQR[dW]KWIQDARRRAWLHKLIAEIHTAEIC-NH2; N-terminus assumed), for which the IC50 in assay [1] (inhibition of PTH(1-34)-induced maximum response, read-out: corresponding nanomolar value of pIC50 (Table 4) (converted)) was 224 nM; in assay [2] (IC50 PTH(1-34) (Table 6, nanomolar value), antagonist pre-treatment 15 minutes), 4.39 nM.
